PMC10041525, “New Dual Inhibitors of Bacterial Topoisomerases with Broad-Spectrum Antibacterial Activity and In Vivo Efficacy against Vancomycin-Intermediate Staphylococcus aureus” (Journal of Medicinal Chemistry, 2023)
Converted amounts (≈) assume the structure as drawn. “And” between values parts separate entries of the source, which are not always exact repeats. Equal entries are not always repeated. Where two headings read alike, the source gives them in different places.

Columns and labels:
physchem = format: physicochemical; conditions: for solubility thermodynamic at 24 h / solubility thermodynamic at 48 h: phosphate-buffered saline (PBS)
Description: For the PBS, 2.38 g of disodium hydrogen phosphate dodecahydrate, 0.19 g of potassium dihydrogen phosphate, and 8.0 g of sodium chloride were added to distilled water (900 mL), and the solution was mixed overnight. […] Samples were prepared by weighing the exact mass of solid compounds (about 1 mg), and then, the appropriate volume of PBS was added to reach the final concentration of ∼1 mg/mL. […] The supernatant was diluted 3× with a 1:1 mixture of 0.1% TFA in water and acetonitrile and analyzed by HPLC. For the 7-point calibration curves, concentrated stock solutions of the compounds were prepared at concentrations of 10 and 0.5 mM in DMSO, which were diluted with a 1:1 mixture of 0.1% TFA in water and acetonitrile to the desired final concentrations and analyzed by HPLC. Results are given in μM as an average value of two independent experiments. For details on calibration curves, concentrations, analytical method, and HPLC method, see the Supporting Information.
Thermodynamic solubility assay
To determine thermodynamic solubility of compounds in PBS, calibration curves for the assayed compounds were prepared using seven concentrations. First, DMSO stock solutions of compounds at 10 mM and 0.5 mM concentration were prepared and then diluted (0.1% TFA in […]
Quality control (QC) samples were diluted from stock solutions with a 1:1 mixture of 0.1% TFA in water and acetonitrile to final concentrations of 60 µM, 20 µM, and 2 µM (6 µM, 2 µM, and 0.2 µM for 7f or 0.6 µM, 0.2 µM, and 0.02 µM for 7g).
Analytical reversed-phase UHPLC analyses were performed on Thermo Scientific Dionex UltiMate 3000 modular system (Thermo Fisher Scientific Inc., MA, USA). Waters Acquity UPLC® HSS C18 SB column (2.1 × 50 mm, 1.8 μm; Waters, Milford, MA, USA) was used at T […]
Mobile phase consisted of 0.1% trifluoroacetic acid in ultrapure water (solvent A) and acetonitrile […]
The obtained data was processed in Chromeleon CDS software (Thermo Fisher Scientific Inc., […]
Analytical method was tested for accuracy, precision and linear rang. Accuracy was […]
(or 2 or 0.2) µM and 60 (or 6 or 0.6) µM) to their true values and expressed in (%). Values were […]
Method repeatability was determined by calculating the RSD from the separately prepared and analysed quality control samples (n = 3). […] Linearity of the […]
method (1 (or 0.1 or 0.01) µM to 100 (or 10 or 1) µM) was evaluated from the 7-point calibration […]
Solubility was determined in two independent experiments and results were calculated in […]

in vitro = in vitro ADME, mouse; conditions: male, CD-1, mouse; for fraction unbound at 4 h, 5 μM: plasma (pooled), mouse plasma, read-out: fu, fraction unbound; for recovery at 4 h, 5 μM: plasma protein binding assay
Description: The PPB studies were performed by Selvita d.o.o. (Zagreb, Croatia) in mouse plasma (CD-1 male, pooled, commercially obtained from BioIVT) via equilibrium dialysis. Compounds were assayed at 5 μM (0.5% DMSO) in two replicates, and incubation time was 4 h at 37 °C. Samples were taken at 0 min and 4 h. Aliquots from both buffer and plasma compartment matrix were matched and mixed with 6 volumes of STOP solution (acetonitrile/methanol (2:1) + internal standard – diclofenac) and analyzed by LC–MS/MS. Assay controls were caffeine (low), verapamil (moderate binding), and nicardipine (very high binding), and protein contamination was checked.

E. coli ATCC 25922 = test: IHMA QC MIC; format: cell-based; conditions: for MIC: Escherichia coli
[1] = system: 3 sensitive and 7 MDR A. baumannii clinical isolates; test: MIC, Hungarian clinical isolates and controls (384-well); format: cell-based; conditions: n=10
E. coli ATCC 35218 = test: IHMA QC MIC; format: cell-based; conditions: for MIC: Escherichia coli, ATCC35218, read-out: MIC (QC, repeated tests)
Description: (§1) The panel of Hungarian clinical isolates and controls measured following the same method as detailed above, and albeit measurements were carried out in 384-well microtiter plates (Corning Inc.).

A. baumannii ATCC 17978 = test: IHMA QC MIC; format: cell-based
Description: as §1

[2] = pH 7.4, PBS pH 7.4, read-out: thermodynamic solubility, Experiment 1
[3] = pH 7.4, PBS pH 7.4, read-out: thermodynamic solubility, Experiment 2
[4] = pH 7.4, thermodynamic solubility (pH = 7.4), PBS, 37 °C, 24 h, mean of two
[5] = ATCC25922, read-out: MIC (QC, repeated tests)

Row | Compound | solubility thermodynamic at 24 h (physchem; [2]) [µM] | solubility thermodynamic at 24 h (physchem; [3]) [µM] | solubility thermodynamic at 24 h (physchem; [4]) [µM] | thermodynamic solubility (pH = 7.4) (physchem; PBS, 37 °C, 24 h, mean of two) | also measured
1 | Cc1[nH]c(C(=O)Nc2nc3c(N4CCOCC4C)cc(C(=O)O)cc3s2)c(Cl)c1Cl (stereo not shown) [7b, 2-(3,4-Dichloro-5-methyl-1H-pyrrole-2-carboxamido)-4-(3-methylmorpholino)benzo[d]thiazole-6-carboxylic Acid] | 59.6 (≈ 28 µg/mL) | 76.6 (≈ 36 µg/mL) | 68.1 (≈ 32 µg/mL) | – | solubility thermodynamic at 48 h (physchem; [4]): 68 µM (≈ 31.9 µg/mL); fraction unbound at 4 h, 5 μM (in vitro): 0.013; recovery at 4 h, 5 μM (in vitro): 84.5%
2 | Cc1[nH]c(C(=O)Nc2nc3c(N4CCOC[C@H]4C)cc(C(=O)O)cc3s2)c(Cl)c1Cl [7c, (R)-2-(3,4-Dichloro-5-methyl-1H-pyrrole-2-carboxamido)-4-(3-methylmorpholino)benzo[d]thiazole-6-carboxylic Acid] | 8.67 (≈ 4.07 µg/mL) | 11.6 (≈ 5.44 µg/mL) | 10.1 (≈ 4.74 µg/mL) | 10.14 µM | fraction unbound at 4 h, 5 μM (in vitro): 0.016; recovery at 4 h, 5 μM (in vitro): 93%
3 | Cc1[nH]c(C(=O)Nc2nc3c(N4CCOC[C@@H]4C)cc(C(=O)O)cc3s2)c(Cl)c1Cl [7d, (S)-2-(3,4-Dichloro-5-methyl-1H-pyrrole-2-carboxamido)-4-(3-methylmorpholino)benzo[d]thiazole-6-carboxylic Acid] | 5.6 (≈ 2.63 µg/mL) | 6.07 (≈ 2.85 µg/mL) | 5.8 (≈ 2.72 µg/mL) | 5.84 µM | fraction unbound at 4 h, 5 μM (in vitro): 0.011; recovery at 4 h, 5 μM (in vitro): 89.5%
4 | Cc1[nH]c(C(=O)Nc2nc3c(N4CCOC(C)C4)cc(C(=O)O)cc3s2)c(Cl)c1Cl (stereo not shown) [7e, 2-(3,4-Dichloro-5-methyl-1H-pyrrole-2-carboxamido)-4-(2-methylmorpholino)benzo[d]thiazole-6-carboxylic Acid] | 71.9 (≈ 33.7 µg/mL) | 88.8 (≈ 41.7 µg/mL) | 80.4 (≈ 37.7 µg/mL) | 80.35 µM | solubility thermodynamic at 48 h (physchem; [4]): 80 µM (≈ 37.5 µg/mL)
5 | Cc1[nH]c(C(=O)Nc2nc3c(N4CC(C)OC(C)C4)cc(C(=O)O)cc3s2)c(Cl)c1Cl (stereo not shown) [7f, 2-(3,4-Dichloro-5-methyl-1H-pyrrole-2-carboxamido)-4-(2,6-dimethylmorpholino)benzo[d]thiazole-6-carboxylic Acid] | 0.95 (≈ 0.459 µg/mL) | 0.89 (≈ 0.43 µg/mL) | 0.92 (≈ 0.445 µg/mL) | – | –
6 | Cc1[nH]c(C(=O)Nc2nc3c(N4C[C@H]5CC[C@@H](C4)O5)cc(C(=O)O)cc3s2)c(Cl)c1Cl [7g, 4-((1R,5S)-8-Oxa-3-azabicyclo[3.2.1]octan-3-yl)-2-(3,4-dichloro-5-methyl-1H-pyrrole-2-carboxamido)benzo[d]thiazole-6-carboxylic Acid] | 0.33 (≈ 0.159 µg/mL) | 0.19 (≈ 0.0915 µg/mL) | – | – | solubility thermodynamic at 48 h (physchem; [4]): 0.26 µM (≈ 0.125 µg/mL); fraction unbound at 4 h, 5 μM (in vitro): 0.004; recovery at 4 h, 5 μM (in vitro): 93.5%
7 | Cc1[nH]c(C(=O)Nc2nc3c(N4CCOC(C(F)(F)F)C4)cc(C(=O)O)cc3s2)c(Cl)c1Cl (stereo not shown) [7i, 2-(3,4-Dichloro-5-methyl-1H-pyrrole-2-carboxamido)-4-(2-(trifluoromethyl)morpholino)benzo[d]thiazole-6-carboxylic Acid] | 10.7 (≈ 5.57 µg/mL) | – | 10.7 (≈ 5.6 µg/mL) | – | solubility thermodynamic at 48 h (physchem; [4]): 11 µM (≈ 5.76 µg/mL); fraction unbound at 4 h, 5 μM (in vitro): < 0.001; recovery at 4 h, 5 μM (in vitro): 110%
8 | COCC1CCCN1c1cc(C(=O)O)cc2sc(NC(=O)c3[nH]c(C)c(Cl)c3Cl)nc12 (stereo not shown) [7n, 2-(3,4-Dichloro-5-methyl-1H-pyrrole-2-carboxamido)-4-(2-(methoxymethyl)pyrrolidin-1-yl)benzo[d]thiazole-6-carboxylic Acid] | 11 (≈ 5.31 µg/mL) | 11.4 (≈ 5.49 µg/mL) | 11.2 (≈ 5.41 µg/mL) | 11.18 µM | –
9 | COC[C@@H]1CCCN1c1cc(C(=O)O)cc2sc(NC(=O)c3[nH]c(C)c(Cl)c3Cl)nc12 [7o, (S)-2-(3,4-Dichloro-5-methyl-1H-pyrrole-2-carboxamido)-4-(2-(methoxymethyl)pyrrolidin-1-yl)benzo[d]thiazole-6-carboxylic Acid] | 10.6 (≈ 5.12 µg/mL) | 11.4 (≈ 5.5 µg/mL) | 11 (≈ 5.32 µg/mL) | 10.98 µM | –
10 | Cc1[nH]c(C(=O)Nc2nc3c(N4CCC(O)CC4)cc(C(=O)O)cc3s2)c(Cl)c1Cl [7p, 2-(3,4-Dichloro-5-methyl-1H-pyrrole-2-carboxamido)-4-(4-hydroxypiperidin-1-yl)benzo[d]thiazole-6-carboxylic Acid] | 279 (≈ 131 µg/mL) | 88.3 (≈ 41.4 µg/mL) | 184 (≈ 86.4 µg/mL) | 183.7 µM and 183.67 µM | –
11 | Cc1[nH]c(C(=O)Nc2nc3c(N4CCOCC4)cc(C(=O)O)cc3s2)cc1Cl [16a, 2-(4-Chloro-5-methyl-1H-pyrrole-2-carboxamido)-4-morpholinobenzo[d]thiazole-6-carboxylic Acid] | 134 (≈ 56.3 µg/mL) | 141 (≈ 59.6 µg/mL) | 138 (≈ 57.9 µg/mL) | 137.58 µM | solubility thermodynamic at 48 h (physchem; [4]): 137 µM (≈ 57.7 µg/mL)
12 | Cc1[nH]c(C(=O)Nc2nc3c(N4CCOCC4)cc(C(=O)O)cc3s2)cc1F [16b, 2-(4-Fluoro-5-methyl-1H-pyrrole-2-carboxamido)-4-morpholinobenzo[d]thiazole-6-carboxylic Acid] | 140 (≈ 56.7 µg/mL) | 123 (≈ 49.6 µg/mL) | 131 (≈ 53 µg/mL) | 131.4 µM and 131.42 µM | –
13 | CC1(C)S[C@@H]2[C@H](NC(=O)[C@H](N)c3ccccc3)C(=O)N2[C@H]1C(=O)O [Ampicillin, ampicillin] | – | – | – | – | MIC (E. coli ATCC 25922; ATCC25922, QC strain E. coli ATCC 25922, test date 2021-11-11, read-out: MIC): 8 µg/mL (≈ 22.9 µM); MIC (E. coli ATCC 25922; ATCC25922, QC strain E. coli ATCC 25922, test date 2021-11-26, read-out: MIC): 4 µg/mL (≈ 11.4 µM)
14 | CO/N=C(\C(=O)N[C@@H]1C(=O)N2C(C(=O)[O-])=C(C[N+]3(C)CCCC3)CS[C@H]12)c1csc(N)n1 [Cefepime, cefepime] | – | – | – | – | Cumulative % at MIC ([1]; MIC […] µg/mL): 20%; MIC (E. coli ATCC 35218): ≤ 0.25 µg/mL; MIC (E. coli ATCC 25922; [5]): ≤ 0.25 µg/mL
15 | C[C@@H](O)[C@H]1C(=O)N2C(C(=O)O)=C(S[C@@H]3CN[C@H](C(=O)N(C)C)C3)[C@H](C)[C@H]12 [Meropenem, meropenem] | – | – | – | – | Cumulative % at MIC ([1]; MIC 1 µg/mL): 30%; Cumulative % at MIC ([1]; MIC 64 µg/mL): 100%; Cumulative % at MIC ([1]; MIC […]): 10%; MIC (E. coli ATCC 35218): ≤ 0.06 µg/mL; MIC (E. coli ATCC 25922; [5]): ≤ 0.06 µg/mL
16 | CN(C)c1cc(NC(=O)CNC(C)(C)C)c(O)c2c1C[C@H]1C[C@H]3[C@H](N(C)C)C(O)=C(C(N)=O)C(=O)[C@@]3(O)C(O)=C1C2=O [Tigecycline, tigecycline] | – | – | – | – | MIC (E. coli ATCC 35218): 0.12 µg/mL (≈ 0.205 µM); MIC (QC, repeated tests) (A. baumannii ATCC 17978): 0.5 µg/mL (≈ 0.854 µM); MIC (A. baumannii ATCC 17978; Acinetobacter baumannii, ATCC17978, read-out: MIC (QC, repeated tests)): 0.25 µg/mL (≈ 0.427 µM); MIC (E. coli ATCC 25922; [5]): 0.12 µg/mL (≈ 0.205 µM)
17 | piperacillin/tazobactam [Piperacillin Tazobactam] | – | – | – | – | MIC (QC, repeated tests) (E. coli ATCC 35218): 1 µg/mL; MIC (QC, repeated tests) (E. coli ATCC 25922): 2 µg/mL
